Test results as given in patent publication US12344600B2, “c-Myc mRNA translation modulators and uses thereof in the treatment of cancer” (Anima Biotech Inc., priority 2022, dated 2025).

The compounds below were run on c-Myc (assay: c-Myc immunofluorescence assay). Conditions: A549 cells, 24 hours, anti-c-Myc immunofluorescence.
Type: cell-based, human
Procedure, shortened: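 A549 NSCLC cells grown 48 h, then treated 24 h with increasing compound concentrations; fixed in 4% paraformaldehyde, stained with anti-c-Myc antibody plus fluorescent secondary and DAPI. Per-cell c-Myc fluorescence quantified by high-content imaging at 20×; dose-response fitted by logistic regression to give EC50.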

| SMILES | Myc Efficacy (−LogEC50) |
| --- | --- |
| COc1ccc(-c2noc(N3CCC(C(=O)NCc4cc(C)ccc4F)CC3)n2)cc1 [Compound 311, N-(2-fluoro-5-methylbenzyl)-1-(3-(4-methoxyphenyl)-1,2,4-oxadiazol-5-yl)piperidine-4-carboxamide] | − (− ≤3) |
| COc1ccc(-c2noc(N3CCC(C(=O)NC4CCC5(CCOCC5)CC4)CC3)n2)cc1 [Compound 312, 1-(3-(4-methoxyphenyl)-1,2,4-oxadiazol-5-yl)-N-(3-oxaspiro[5.5]undecan-9-yl)piperidine-4-carboxamide] | + (+ >3 and <5) |
| COc1ccc(-c2noc(N3CCC(C(=O)NC(C)C4CCCCO4)CC3)n2)cc1 (stereo not drawn) [Compound 313, 1-(3-(4-methoxyphenyl)-1,2,4-oxadiazol-5-yl)-N-(1-(tetrahydro-2H-pyran-2-yl)ethyl)piperidine-4-carboxamide] | − (− ≤3) |
| COc1ccc(-c2noc(N3CCC(C(=O)NCCN(C)C4CC4)CC3)n2)cc1 [Compound 314, N-(2-(cyclopropyl(methyl)amino)ethyl)-1-(3-(4-methoxyphenyl)-1,2,4-oxadiazol-5-yl)piperidine-4-carboxamide] | + (+ >3 and <5) |
| COc1ccc(-c2noc(N3CCC(C(=O)N[C@@H](CCO)C(C)C)CC3)n2)cc1 [Compound 315, (S)-N-(1-hydroxy-4-methylpentan-3-yl)-1-(3-(4-methoxyphenyl)-1,2,4-oxadiazol-5-yl)piperidine-4-carboxamide] | + (+ >3 and <5) |
| COc1ccc(-c2noc(N3CCC(C(=O)N[C@H]4CCN(Cc5ccccc5)C4)CC3)n2)cc1 [Compound 316, (S)-N-(1-benzylpyrrolidin-3-yl)-1-(3-(4-methoxyphenyl)-1,2,4-oxadiazol-5-yl)piperidine-4-carboxamide] | + (+ >3 and <5) |
| COc1ccc(-c2noc(N3CCC(C(=O)NCCc4c[nH]c5cc(C)ccc45)CC3)n2)cc1 [Compound 317, 1-(3-(4-methoxyphenyl)-1,2,4-oxadiazol-5-yl)-N-(2-(6-methyl-1H-indol-3-yl)ethyl)piperidine-4-carboxamide] | ++ (++ ≥5 and <6) |
| COc1ccc(-c2noc(N3CCC(C(=O)NCc4cnc(C(F)(F)F)s4)CC3)n2)cc1 [Compound 318, 1-(3-(4-methoxyphenyl)-1,2,4-oxadiazol-5-yl)-N-((2-(trifluoromethyl)thiazol-5-yl)methyl)piperidine-4-carboxamide] | + (+ >3 and <5) |
| COc1ccc(-c2noc(N3CCC(C(=O)Nc4cc(Cl)c(Cl)cn4)CC3)n2)cc1 [Compound 319, N-(4,5-dichloropyridin-2-yl)-1-(3-(4-methoxyphenyl)-1,2,4-oxadiazol-5-yl)piperidine-4-carboxamide] | + (+ >3 and <5) |
| COc1ccc(-c2noc(N3CCC(C(=O)NCC4CCN(Cc5ccco5)C4)CC3)n2)cc1 (stereo not drawn) [Compound 320, N-((1-(furan-2-ylmethyl)pyrrolidin-3-yl)methyl)-1-(3-(4-methoxyphenyl)-1,2,4-oxadiazol-5-yl)piperidine-4-carboxamide] | + (+ >3 and <5) |
| COc1ccc(-c2noc(N3CCC(C(=O)NCC4CCN(Cc5ccccc5O)C4)CC3)n2)cc1 (stereo not drawn) [Compound 321, N-((1-(2-hydroxybenzyl)pyrrolidin-3-yl)methyl)-1-(3-(4-methoxyphenyl)-1,2,4-oxadiazol-5-yl)piperidine-4-carboxamide] | ++ (++ ≥5 and <6) |
| COc1ccc(-c2noc(N3CCC(C(=O)NCC4CCN(Cc5ccncc5)C4)CC3)n2)cc1 (stereo not drawn) [Compound 322, 1-(3-(4-methoxyphenyl)-1,2,4-oxadiazol-5-yl)-N-((1-(pyridin-4-ylmethyl)pyrrolidin-3-yl)methyl)piperidine-4-carboxamide] | ++ (++ ≥5 and <6) |
| COc1ccc(-c2noc(N3CCC(C(=O)NCC4CCN(CC5CCCC5)C4)CC3)n2)cc1 (stereo not drawn) [Compound 323, N-((1-(cyclopentylmethyl)pyrrolidin-3-yl)methyl)-1-(3-(4-methoxyphenyl)-1,2,4-oxadiazol-5-yl)piperidine-4-carboxamide] | ++ (++ ≥5 and <6) |
| C#Cc1cccc(CN2CCC(CNC(=O)C3CCN(c4nc(-c5ccc(OC)cc5)no4)CC3)C2)c1 (stereo not drawn) [Compound 324, N-((1-(3-ethynylbenzyl)pyrrolidin-3-yl)methyl)-1-(3-(4-methoxyphenyl)-1,2,4-oxadiazol-5-yl)piperidine-4-carboxamide] | ++ (++ ≥5 and <6) |
| COc1ccc(-c2noc(N3CCC(C(=O)NCC4CCN(Cc5cc[nH]c5)C4)CC3)n2)cc1 (stereo not drawn) [Compound 325, N-((1-((1H-pyrrol-3-yl)methyl)pyrrolidin-3-yl)methyl)-1-(3-(4-methoxyphenyl)-1,2,4-oxadiazol-5-yl)piperidine-4-carboxamide] | + (+ >3 and <5) |
| COc1ccc(-c2noc(N3CCC(C(=O)NCC4CCN(Cc5cc(C)ccn5)C4)CC3)n2)cc1 (stereo not drawn) [Compound 326, 1-(3-(4-methoxyphenyl)-1,2,4-oxadiazol-5-yl)-N-((1-((4-methylpyridin-2-yl)methyl)pyrrolidin-3-yl)methyl)piperidine-4-carboxamide] | ++ (++ ≥5 and <6) |
| COc1ccc(-c2noc(N3CCC(C(=O)NCC4CCN(CC(C)(C)C)C4)CC3)n2)cc1 (stereo not drawn) [Compound 327, 1-(3-(4-methoxyphenyl)-1,2,4-oxadiazol-5-yl)-N-((1-neopentylpyrrolidin-3-yl)methyl)piperidine-4-carboxamide] | + (+ >3 and <5) |
| COc1ccc(-c2noc(N3CCC(C(=O)NCC4CCN(Cc5ccccc5C)C4)CC3)n2)cc1 (stereo not drawn) [Compound 328, 1-(3-(4-methoxyphenyl)-1,2,4-oxadiazol-5-yl)-N-((1-(2-methylbenzyl)pyrrolidin-3-yl)methyl)piperidine-4-carboxamide] | ++ (++ ≥5 and <6) |
| COc1ccc(-c2noc(N3CCC(C(=O)NCC4CCN(Cc5cnccc5C)C4)CC3)n2)cc1 (stereo not drawn) [Compound 329, 1-(3-(4-methoxyphenyl)-1,2,4-oxadiazol-5-yl)-N-((1-((4-methylpyridin-3-yl)methyl)pyrrolidin-3-yl)methyl)piperidine-4-carboxamide] | + (+ >3 and <5) |
| COc1ccc(-c2noc(N3CCC(C(=O)NCC4CCN(Cc5ccoc5)C4)CC3)n2)cc1 (stereo not drawn) [Compound 330, N-((1-(furan-3-ylmethyl)pyrrolidin-3-yl)methyl)-1-(3-(4-methoxyphenyl)-1,2,4-oxadiazol-5-yl)piperidine-4-carboxamide] | + (+ >3 and <5) |
| COc1ccc(-c2noc(N3CCC(C(=O)NCC4CCN(Cc5ccc(F)cc5)C4)CC3)n2)cc1 (stereo not drawn) [Compound 331, N-((1-(4-fluorobenzyl)pyrrolidin-3-yl)methyl)-1-(3-(4-methoxyphenyl)-1,2,4-oxadiazol-5-yl)piperidine-4-carboxamide] | ++ (++ ≥5 and <6) |
| COc1ccc(-c2noc(N3CCC(C(=O)NCC4CCN(Cc5cccc(F)c5)C4)CC3)n2)cc1 (stereo not drawn) [Compound 332, N-((1-(3-fluorobenzyl)pyrrolidin-3-yl)methyl)-1-(3-(4-methoxyphenyl)-1,2,4-oxadiazol-5-yl)piperidine-4-carboxamide] | ++ (++ ≥5 and <6) |
| COc1ccc(-c2noc(N3CCC(C(=O)NCC4CCN(Cc5cncc(F)c5)C4)CC3)n2)cc1 (stereo not drawn) [Compound 333, N-((1-((5-fluoropyridin-3-yl)methyl)pyrrolidin-3-yl)methyl)-1-(3-(4-methoxyphenyl)-1,2,4-oxadiazol-5-yl)piperidine-4-carboxamide] | + (+ >3 and <5) |
| COc1ccc(-c2noc(N3CCC(C(=O)NCC4CCN(Cc5ncccc5F)C4)CC3)n2)cc1 (stereo not drawn) [Compound 334, N-((1-((3-fluoropyridin-2-yl)methyl)pyrrolidin-3-yl)methyl)-1-(3-(4-methoxyphenyl)-1,2,4-oxadiazol-5-yl)piperidine-4-carboxamide] | + (+ >3 and <5) |
| COc1ccc(-c2noc(N3CCC(C(=O)NCC4CCN(Cc5ccc(F)cn5)C4)CC3)n2)cc1 (stereo not drawn) [Compound 335, N-((1-((5-fluoropyridin-2-yl)methyl)pyrrolidin-3-yl)methyl)-1-(3-(4-methoxyphenyl)-1,2,4-oxadiazol-5-yl)piperidine-4-carboxamide] | ++ (++ ≥5 and <6) |
| COc1ccc(-c2noc(N3CCC(C(=O)NCC4CCN(CC5CCC5)C4)CC3)n2)cc1 (stereo not drawn) [Compound 336, N-((1-(cyclobutylmethyl)pyrrolidin-3-yl)methyl)-1-(3-(4-methoxyphenyl)-1,2,4-oxadiazol-5-yl)piperidine-4-carboxamide] | ++ (++ ≥5 and <6) |
| COc1ccc(-c2noc(N3CCC(C(=O)NCC4CCN(CC5CC5(C)C)C4)CC3)n2)cc1 (stereo not drawn) [Compound 337, N-((1-((2,2-dimethylcyclopropyl)methyl)pyrrolidin-3-yl)methyl)-1-(3-(4-methoxyphenyl)-1,2,4-oxadiazol-5-yl)piperidine-4-carboxamide] | ++ (++ ≥5 and <6) |
| COc1ccc(-c2noc(N3CCC(C(=O)NCC4CCN(CC5CCCCC5)C4)CC3)n2)cc1 (stereo not drawn) [Compound 338, N-((1-(cyclohexylmethyl)pyrrolidin-3-yl)methyl)-1-(3-(4-methoxyphenyl)-1,2,4-oxadiazol-5-yl)piperidine-4-carboxamide] | ++ (++ ≥5 and <6) |
| COc1ccc(-c2noc(N3CCC(C(=O)NCC4CCN(Cc5ccc(O)cc5)C4)CC3)n2)cc1 (stereo not drawn) [Compound 339, N-((1-(4-hydroxybenzyl)pyrrolidin-3-yl)methyl)-1-(3-(4-methoxyphenyl)-1,2,4-oxadiazol-5-yl)piperidine-4-carboxamide] | ++ (++ ≥5 and <6) |
| COc1ccc(-c2noc(N3CCC(C(=O)NCC4CCN(Cc5ccccn5)C4)CC3)n2)cc1 (stereo not drawn) [Compound 340, 1-(3-(4-methoxyphenyl)-1,2,4-oxadiazol-5-yl)-N-((1-(pyridin-2-ylmethyl)pyrrolidin-3-yl)methyl)piperidine-4-carboxamide] | ++ (++ ≥5 and <6) |
